The source made the active and inactive calls.
Legend:
[1] = tested on: Candida albicans; assay: C. albicans growth inhibition with fluconazole – CaCi-2 strain, Alamar Blue, dry powder, set 4, dose response (AID 488943); type: functional, organism-based
[2] = tested on: Candida albicans; assay: Candida growth inhibition combined with fluconazole – CaCi-2 strain, Alamar Blue, dry powder, set 3, dose response (AID 488907); type: functional, organism-based
[3] = tested on: Candida albicans; assay: fluconazole-resistant Candida strain growth inhibitors – CaCi-8 strain, dry powder, set 4, dose response (AID 488950); type: functional, organism-based
[4] = tested on: Candida albicans; assay: single-agent toxicity toward C. albicans – CaCi-2 strain, no fluconazole, dry powder, set 4, counter-screen for reversing antifungal drug resistance, dose response (AID 488932); type: functional, organism-based
[5] = target: Nuclear receptor subfamily 0 group B member 1 (Homo sapiens, UniProt P51843); assay: Luminescence-based cell-based high throughput dose response assay for inhibitors of the orphan nuclear receptor subfamily 0, group B, member 1 (DAX1; NR0B1). [Related pubchem assays (depositor defined):AID504766, AID504790]; type: functional
[6] = tested on: HEK293; assay: cells; type: functional, cell-based; details: Homo sapiens
[7] = target: T1, Carboxy-terminal domain RNA polymerase II polypeptide A small phosphatase 1 (Homo sapiens, UniProt Q9GZU7); assay: CTDSP1 inhibitors, concentration-response, biochemical, absorbance readout, ultra-high-throughput screen actives (AID 540297); type: functional
T1 sequence (Q9GZU7 whole entry): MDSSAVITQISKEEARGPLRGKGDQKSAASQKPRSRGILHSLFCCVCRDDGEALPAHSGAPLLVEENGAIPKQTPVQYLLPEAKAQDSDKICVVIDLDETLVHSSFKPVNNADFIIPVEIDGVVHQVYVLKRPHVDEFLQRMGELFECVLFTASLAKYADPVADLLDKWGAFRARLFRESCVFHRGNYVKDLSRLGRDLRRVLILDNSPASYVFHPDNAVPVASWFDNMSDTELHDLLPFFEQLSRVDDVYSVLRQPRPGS

[8] = target: T2, Small ubiquitin-related modifier 1 (Homo sapiens, UniProt P63165); assay: SUMO1 protein interaction blockers, potency – biochemical, fluorescence polarization, uHTS hits, dose response (AID 624382); type: functional; details: read-out: IC50_Mean
[9] = target: T3, Apoptotic protease-activating factor 1 (Homo sapiens, UniProt O14727); assay: activation of Apaf-1 mediated apoptosis – fluorescent, uHTS hits, dose response (AID 588554); type: functional
T3 sequence (O14727 whole entry): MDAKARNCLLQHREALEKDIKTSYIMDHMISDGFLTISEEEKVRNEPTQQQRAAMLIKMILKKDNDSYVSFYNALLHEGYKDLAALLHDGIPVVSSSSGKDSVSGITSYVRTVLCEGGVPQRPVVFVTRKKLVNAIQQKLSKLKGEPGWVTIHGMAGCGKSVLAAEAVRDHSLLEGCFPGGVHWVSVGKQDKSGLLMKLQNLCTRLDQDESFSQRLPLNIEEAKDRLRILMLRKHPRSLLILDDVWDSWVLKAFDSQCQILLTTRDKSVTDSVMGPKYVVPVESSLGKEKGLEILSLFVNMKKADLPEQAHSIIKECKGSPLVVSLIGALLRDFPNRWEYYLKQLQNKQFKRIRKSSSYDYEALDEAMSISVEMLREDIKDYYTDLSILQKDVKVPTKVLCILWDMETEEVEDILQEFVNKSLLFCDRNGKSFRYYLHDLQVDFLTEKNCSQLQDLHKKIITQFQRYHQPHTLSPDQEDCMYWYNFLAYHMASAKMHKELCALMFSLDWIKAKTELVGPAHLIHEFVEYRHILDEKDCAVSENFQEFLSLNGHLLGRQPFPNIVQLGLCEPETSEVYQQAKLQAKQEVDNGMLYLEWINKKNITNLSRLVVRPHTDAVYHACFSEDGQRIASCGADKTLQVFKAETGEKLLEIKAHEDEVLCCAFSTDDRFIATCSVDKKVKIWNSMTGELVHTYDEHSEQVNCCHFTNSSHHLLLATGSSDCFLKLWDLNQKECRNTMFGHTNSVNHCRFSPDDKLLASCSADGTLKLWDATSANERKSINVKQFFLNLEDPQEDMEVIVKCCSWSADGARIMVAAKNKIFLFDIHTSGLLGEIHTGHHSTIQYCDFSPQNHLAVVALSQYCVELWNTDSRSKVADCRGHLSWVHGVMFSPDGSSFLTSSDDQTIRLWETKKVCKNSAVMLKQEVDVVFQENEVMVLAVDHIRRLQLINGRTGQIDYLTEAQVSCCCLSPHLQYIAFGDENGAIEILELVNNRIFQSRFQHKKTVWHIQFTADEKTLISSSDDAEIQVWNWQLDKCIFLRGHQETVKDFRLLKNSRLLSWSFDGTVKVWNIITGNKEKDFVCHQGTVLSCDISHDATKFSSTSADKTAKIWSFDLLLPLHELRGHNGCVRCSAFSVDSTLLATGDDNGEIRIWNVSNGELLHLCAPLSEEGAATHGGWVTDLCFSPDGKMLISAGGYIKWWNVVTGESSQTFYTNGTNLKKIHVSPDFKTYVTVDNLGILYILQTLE

[10] = target: Induced myeloid leukemia cell differentiation protein Mcl-1 (Homo sapiens, UniProt Q07820); type: functional
[11] = target: DNA dC->dU-editing enzyme APOBEC-3A (Homo sapiens, UniProt P31941); assay: A3A deaminase inhibition for selectivity – biochemical, dose response (AID 504722); type: functional
[12] = target: DNA (cytosine-5)-methyltransferase 1 (Homo sapiens, UniProt P26358); assay: inhibition of DNA methylation by DNMT1 – biochemical, fluorescent molecular beacon, confirmation (AID 602386); type: functional
[13] = target: DNA dC->dU-editing enzyme APOBEC-3G (Homo sapiens, UniProt Q9HC16); assay: Dose Response confirmation of small molecule APOBEC3G DNA Deaminase Inhibitors via a fluorescence-based single-stranded DNA deaminase assay. [Related pubchem assays (depositor defined):AID493012, AID493028]; type: functional
[14] = target: T2, Small ubiquitin-related modifier 1; assay: SUMO1 protein-protein binding blockers, potency – biochemical, FRET, dose response (AID 624383); type: functional; details: read-out: IC50_Mean
[15] = target: Dual specificity protein kinase CLK1 (Homo sapiens, UniProt P49759); assay: inhibition of human CLK1 activity – biochemical, cherry-picked samples, selectivity assay for Dyrk1A inhibitor project, dose response (AID 588811)
[16] = target: Dual specificity tyrosine-phosphorylation-regulated kinase 1A (Rattus norvegicus, UniProt Q63470); type: biochemical, Homo sapiens
[17] = tested on: Vero; assay: cells; type: functional; details: Chlorocebus sabaeus
[18] = target: Steroidogenic factor 1 (Homo sapiens, UniProt Q13285); assay: Counterscreen for inverse agonists of the liver receptor homolog-1 (LRH-1; NR5A2): Luminescence-based cell-based high throughput dose response assay to identify inverse agonists of the Steroidogenic Factor 1 Nuclear Receptor (SF1; NR5A1).; type: functional
[19] = target: T4, Heat shock factor protein 1 (Mus musculus, UniProt P38532); assay: enhancement of HSF1-driven luciferase signal – cell-based, NIH3T3, luminescence, dose retest, confirmation (AID 435004); type: functional;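 further: stress induced by proteasome inhibitor MG132 added 30 min after compound; luciferase reporter driven by HSF1 response element in NIH3T3 cells; actives raise luminescence as potentiators of the MG132 stress response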
T4 sequence (P38532 whole entry): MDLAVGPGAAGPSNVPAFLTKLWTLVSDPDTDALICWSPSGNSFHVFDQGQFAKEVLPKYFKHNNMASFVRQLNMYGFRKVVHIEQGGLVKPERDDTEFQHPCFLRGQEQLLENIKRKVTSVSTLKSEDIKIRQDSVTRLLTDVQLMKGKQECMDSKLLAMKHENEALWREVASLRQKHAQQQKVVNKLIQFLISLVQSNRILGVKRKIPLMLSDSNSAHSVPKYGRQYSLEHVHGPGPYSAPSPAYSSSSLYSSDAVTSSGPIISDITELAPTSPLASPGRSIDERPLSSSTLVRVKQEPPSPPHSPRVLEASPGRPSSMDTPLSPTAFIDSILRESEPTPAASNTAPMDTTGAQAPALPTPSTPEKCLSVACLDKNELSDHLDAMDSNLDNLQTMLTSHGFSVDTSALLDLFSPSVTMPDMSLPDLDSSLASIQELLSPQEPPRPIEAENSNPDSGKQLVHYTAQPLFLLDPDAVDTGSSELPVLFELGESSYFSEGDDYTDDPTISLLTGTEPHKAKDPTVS

[20] = target: Nuclear receptor subfamily 5 group A member 2 (Homo sapiens, UniProt O00482); type: functional, cell-based;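 further: HEK293T cells transfected with LRH-1 and a StAR promoter luciferase reporter; potency for inhibitors that lower LRH-1 driven reporter light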
[21] = tested on: Vero; assay: cells; type: functional, cell-based; details: Chlorocebus sabaeus
[22] = nonselective StAR promoter luciferase inhibitors – cell-based, luminescence, luciferase reporter, counter-screen for LRH-1 inverse agonist project, dose response (AID 651969); type: functional
[23] = blockers of SFLLRN-triggered platelet ATP secretion – cell-based, human platelets, luminescence, dry powder, dose response (AID 493100); type: functional
[24] = Luminescence Cell-Based Dose Response Follow up to Identify Inhibitors of Platelet Dense Granule Release. [Related pubchem assays (depositor defined):AID1663, AID1678, AID1889, AID2519]; type: functional
[25] = target: Dual specificity protein phosphatase 3 (Homo sapiens, UniProt P51452); assay: SAR VHR1 Fluorescent Assay for In Vitro dose response studies Set 3. [Related pubchem assays (depositor defined):AID1654, AID1661, AID1878]; type: functional
[26] = target: T5, Dual specificity protein phosphatase 6 (Rattus norvegicus, UniProt Q64346)
T5 sequence (Q64346 whole entry): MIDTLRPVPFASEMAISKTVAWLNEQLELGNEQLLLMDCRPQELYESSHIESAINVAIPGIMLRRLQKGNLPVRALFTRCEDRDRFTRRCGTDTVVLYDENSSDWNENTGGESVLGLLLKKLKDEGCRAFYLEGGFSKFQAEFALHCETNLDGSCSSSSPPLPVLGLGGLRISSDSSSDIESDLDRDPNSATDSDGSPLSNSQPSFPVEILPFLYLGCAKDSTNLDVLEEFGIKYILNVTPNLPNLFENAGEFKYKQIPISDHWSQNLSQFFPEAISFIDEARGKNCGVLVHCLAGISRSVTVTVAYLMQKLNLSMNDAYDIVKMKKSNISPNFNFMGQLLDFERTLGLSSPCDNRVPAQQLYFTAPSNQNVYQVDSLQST

[27] = target: Glyceraldehyde-3-phosphate dehydrogenase (Homo sapiens, UniProt P04406)
[28] = target: T6, Tyrosine-protein phosphatase non-receptor type 7 (Homo sapiens, UniProt P35236); type: functional
T6 sequence (P35236 whole entry): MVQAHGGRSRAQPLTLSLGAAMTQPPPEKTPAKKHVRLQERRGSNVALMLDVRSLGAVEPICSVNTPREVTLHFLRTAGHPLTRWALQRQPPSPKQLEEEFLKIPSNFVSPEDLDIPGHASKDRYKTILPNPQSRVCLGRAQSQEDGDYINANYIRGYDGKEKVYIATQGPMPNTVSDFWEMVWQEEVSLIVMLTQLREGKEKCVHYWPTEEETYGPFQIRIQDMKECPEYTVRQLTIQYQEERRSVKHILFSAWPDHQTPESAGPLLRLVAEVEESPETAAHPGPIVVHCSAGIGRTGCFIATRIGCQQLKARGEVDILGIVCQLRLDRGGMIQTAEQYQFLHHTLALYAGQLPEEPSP

[29] = target: T5, Dual specificity protein phosphatase 6; type: functional
[30] = tested on: Candida albicans; assay: antifungal activity against resistant Candida strain – CaCi-8, fluconazole, Alamar Blue, dry powder, dose response (AID 488807); type: functional, organism-based
[31] = NIH3T3 cell viability loss – ATP luminescence, mouse fibroblasts, counter-screen, dose response (AID 2010); type: functional, cell-based;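 further: cells exposed to compound for about 90 hours before reading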
[32] = T. cruzi infection blockers in NIH3T3 cells – beta-gal luminescence, NIH3T3 host cells, confirmation (AID 2630); type: functional, cell-based; details: Mus musculus
[33] = Luminescence Cell-Based Secondary HTS screen to identify cytotoxic compounds of NIH3T3 cells. [Related pubchem assays: 1885, 1968 ]; type: functional
[34] = Trypanosoma cruzi growth suppression in host cells – NIH3T3 host cells, beta-gal luminescence, confirmation (AID 2044); type: functional, cell-based;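 further: intracellular parasites grown in NIH/3T3 mouse fibroblasts as host cells; luminescent beta-galactosidase reporter signal from transgenic T. cruzi replicating inside host cells; inhibitors lower the luminescence signal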
[35] = cells
[36] = Luminescence Cell-Based/Microorganism Confirmation at Dose of Inhibitors of Trypanosoma cruzi Infection. [Related pubchem assays: 1885, 1968 ]; type: functional

T2 sequence (P63165 whole entry): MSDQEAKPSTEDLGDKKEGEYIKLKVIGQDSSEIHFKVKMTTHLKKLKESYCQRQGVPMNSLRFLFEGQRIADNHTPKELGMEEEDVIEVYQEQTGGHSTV
Chain of Dual specificity protein kinase CLK1 (P49759 whole entry): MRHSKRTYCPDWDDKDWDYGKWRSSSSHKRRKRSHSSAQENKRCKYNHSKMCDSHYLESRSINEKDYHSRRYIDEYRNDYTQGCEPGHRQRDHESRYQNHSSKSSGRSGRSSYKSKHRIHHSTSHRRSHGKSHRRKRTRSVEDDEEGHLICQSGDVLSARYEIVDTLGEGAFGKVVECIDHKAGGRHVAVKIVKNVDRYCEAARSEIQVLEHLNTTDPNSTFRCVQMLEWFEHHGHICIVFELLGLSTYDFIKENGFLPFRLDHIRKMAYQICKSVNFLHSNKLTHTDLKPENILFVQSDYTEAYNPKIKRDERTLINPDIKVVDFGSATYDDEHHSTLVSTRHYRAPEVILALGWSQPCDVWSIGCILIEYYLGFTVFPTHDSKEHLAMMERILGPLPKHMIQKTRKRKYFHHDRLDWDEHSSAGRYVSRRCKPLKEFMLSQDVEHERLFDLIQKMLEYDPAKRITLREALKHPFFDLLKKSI
Chain of Nuclear receptor subfamily 0 group B member 1 (P51843 whole entry): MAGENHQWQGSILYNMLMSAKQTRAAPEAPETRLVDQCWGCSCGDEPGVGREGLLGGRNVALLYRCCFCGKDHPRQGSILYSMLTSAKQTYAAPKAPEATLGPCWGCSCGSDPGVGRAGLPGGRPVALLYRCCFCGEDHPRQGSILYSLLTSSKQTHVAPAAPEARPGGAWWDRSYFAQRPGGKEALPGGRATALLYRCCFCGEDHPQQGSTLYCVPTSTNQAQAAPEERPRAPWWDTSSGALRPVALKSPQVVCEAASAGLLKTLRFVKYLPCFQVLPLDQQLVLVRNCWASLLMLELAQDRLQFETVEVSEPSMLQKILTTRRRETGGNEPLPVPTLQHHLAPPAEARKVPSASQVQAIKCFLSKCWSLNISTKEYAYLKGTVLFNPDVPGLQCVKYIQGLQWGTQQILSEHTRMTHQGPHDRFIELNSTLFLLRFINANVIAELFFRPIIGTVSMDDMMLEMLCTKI
Chain of Dual specificity protein phosphatase 3 (P51452 whole entry): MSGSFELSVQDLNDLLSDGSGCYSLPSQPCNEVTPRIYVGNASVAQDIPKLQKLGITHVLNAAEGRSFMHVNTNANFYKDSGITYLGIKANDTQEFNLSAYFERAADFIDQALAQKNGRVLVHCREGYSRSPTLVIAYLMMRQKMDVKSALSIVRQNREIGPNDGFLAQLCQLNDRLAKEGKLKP
Chain of Nuclear receptor subfamily 5 group A member 2 (O00482 whole entry): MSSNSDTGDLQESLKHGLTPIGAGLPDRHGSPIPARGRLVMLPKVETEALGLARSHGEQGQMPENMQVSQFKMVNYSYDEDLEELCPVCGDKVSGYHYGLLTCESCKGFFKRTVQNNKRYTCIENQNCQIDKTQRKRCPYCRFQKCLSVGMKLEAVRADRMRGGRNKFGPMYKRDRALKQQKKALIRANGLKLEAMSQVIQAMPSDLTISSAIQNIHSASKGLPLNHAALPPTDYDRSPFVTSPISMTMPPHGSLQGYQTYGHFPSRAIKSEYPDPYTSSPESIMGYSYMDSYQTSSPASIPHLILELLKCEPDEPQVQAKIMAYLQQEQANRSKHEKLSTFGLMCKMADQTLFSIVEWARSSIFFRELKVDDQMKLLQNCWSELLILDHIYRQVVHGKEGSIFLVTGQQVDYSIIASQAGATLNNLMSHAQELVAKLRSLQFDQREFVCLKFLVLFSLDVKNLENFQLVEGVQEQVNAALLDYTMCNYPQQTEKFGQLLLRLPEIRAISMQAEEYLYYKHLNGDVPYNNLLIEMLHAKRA
Chain of Steroidogenic factor 1 (Q13285 whole entry): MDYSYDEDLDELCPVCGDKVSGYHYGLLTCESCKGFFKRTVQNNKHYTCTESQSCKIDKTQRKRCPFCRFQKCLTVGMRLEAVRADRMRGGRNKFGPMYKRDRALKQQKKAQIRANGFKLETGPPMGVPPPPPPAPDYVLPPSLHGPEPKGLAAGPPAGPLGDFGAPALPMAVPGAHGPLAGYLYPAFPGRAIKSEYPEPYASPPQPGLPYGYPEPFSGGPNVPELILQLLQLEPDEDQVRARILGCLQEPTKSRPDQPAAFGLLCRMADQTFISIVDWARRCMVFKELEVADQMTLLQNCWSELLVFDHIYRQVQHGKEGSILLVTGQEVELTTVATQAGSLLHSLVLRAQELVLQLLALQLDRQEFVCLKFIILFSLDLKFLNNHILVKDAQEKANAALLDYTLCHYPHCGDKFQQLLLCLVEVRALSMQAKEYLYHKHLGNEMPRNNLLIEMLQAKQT
Chain of Induced myeloid leukemia cell differentiation protein Mcl-1 (Q07820 whole entry): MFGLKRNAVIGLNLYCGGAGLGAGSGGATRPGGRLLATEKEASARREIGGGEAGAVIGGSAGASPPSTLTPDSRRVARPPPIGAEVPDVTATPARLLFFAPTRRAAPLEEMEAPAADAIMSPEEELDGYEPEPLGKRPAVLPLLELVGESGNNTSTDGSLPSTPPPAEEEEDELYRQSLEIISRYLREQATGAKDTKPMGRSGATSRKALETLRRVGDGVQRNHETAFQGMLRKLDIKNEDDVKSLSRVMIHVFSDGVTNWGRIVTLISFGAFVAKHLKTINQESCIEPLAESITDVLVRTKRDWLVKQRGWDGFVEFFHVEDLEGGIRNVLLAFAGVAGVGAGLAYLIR
Chain of DNA (cytosine-5)-methyltransferase 1 (P26358 whole entry): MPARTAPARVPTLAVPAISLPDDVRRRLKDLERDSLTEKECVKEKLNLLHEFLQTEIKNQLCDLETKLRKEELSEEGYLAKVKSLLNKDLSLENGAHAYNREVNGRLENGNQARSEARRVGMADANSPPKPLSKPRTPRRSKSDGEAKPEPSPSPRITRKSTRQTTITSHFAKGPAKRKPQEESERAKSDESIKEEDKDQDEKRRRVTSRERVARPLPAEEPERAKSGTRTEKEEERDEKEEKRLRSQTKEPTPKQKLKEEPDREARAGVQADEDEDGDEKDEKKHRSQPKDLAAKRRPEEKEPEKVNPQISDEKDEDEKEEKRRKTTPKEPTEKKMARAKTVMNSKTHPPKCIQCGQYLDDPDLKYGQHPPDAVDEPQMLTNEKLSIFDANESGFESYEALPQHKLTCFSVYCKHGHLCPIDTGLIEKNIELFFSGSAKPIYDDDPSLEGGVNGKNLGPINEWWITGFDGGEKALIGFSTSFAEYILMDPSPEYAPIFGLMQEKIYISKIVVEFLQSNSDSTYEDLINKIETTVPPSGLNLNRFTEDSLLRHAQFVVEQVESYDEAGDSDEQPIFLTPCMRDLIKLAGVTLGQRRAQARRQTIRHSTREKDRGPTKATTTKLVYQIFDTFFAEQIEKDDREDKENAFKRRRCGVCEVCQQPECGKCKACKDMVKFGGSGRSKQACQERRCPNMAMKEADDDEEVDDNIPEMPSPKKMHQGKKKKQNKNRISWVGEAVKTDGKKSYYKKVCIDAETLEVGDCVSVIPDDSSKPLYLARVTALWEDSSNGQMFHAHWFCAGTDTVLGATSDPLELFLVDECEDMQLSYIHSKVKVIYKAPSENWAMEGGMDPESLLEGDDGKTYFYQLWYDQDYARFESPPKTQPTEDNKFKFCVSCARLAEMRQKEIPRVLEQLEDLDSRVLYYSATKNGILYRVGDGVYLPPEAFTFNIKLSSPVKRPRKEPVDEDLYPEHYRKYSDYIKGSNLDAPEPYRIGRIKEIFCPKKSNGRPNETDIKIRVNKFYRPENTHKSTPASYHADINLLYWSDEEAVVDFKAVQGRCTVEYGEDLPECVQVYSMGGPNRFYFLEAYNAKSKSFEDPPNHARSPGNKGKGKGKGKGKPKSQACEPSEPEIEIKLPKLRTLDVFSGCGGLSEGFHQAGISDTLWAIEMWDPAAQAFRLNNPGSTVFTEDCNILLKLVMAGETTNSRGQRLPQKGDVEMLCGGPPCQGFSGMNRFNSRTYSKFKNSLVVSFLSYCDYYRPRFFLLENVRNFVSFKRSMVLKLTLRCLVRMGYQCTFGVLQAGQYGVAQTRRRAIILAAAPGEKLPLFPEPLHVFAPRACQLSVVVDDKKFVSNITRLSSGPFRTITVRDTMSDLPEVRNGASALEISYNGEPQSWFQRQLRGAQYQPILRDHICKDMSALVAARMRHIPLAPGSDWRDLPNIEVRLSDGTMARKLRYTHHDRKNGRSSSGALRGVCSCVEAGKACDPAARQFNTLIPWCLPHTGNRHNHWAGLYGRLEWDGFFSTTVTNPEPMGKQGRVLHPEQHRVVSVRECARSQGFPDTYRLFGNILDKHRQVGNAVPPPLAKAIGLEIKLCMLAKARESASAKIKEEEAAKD
Chain of Glyceraldehyde-3-phosphate dehydrogenase (P04406 whole entry): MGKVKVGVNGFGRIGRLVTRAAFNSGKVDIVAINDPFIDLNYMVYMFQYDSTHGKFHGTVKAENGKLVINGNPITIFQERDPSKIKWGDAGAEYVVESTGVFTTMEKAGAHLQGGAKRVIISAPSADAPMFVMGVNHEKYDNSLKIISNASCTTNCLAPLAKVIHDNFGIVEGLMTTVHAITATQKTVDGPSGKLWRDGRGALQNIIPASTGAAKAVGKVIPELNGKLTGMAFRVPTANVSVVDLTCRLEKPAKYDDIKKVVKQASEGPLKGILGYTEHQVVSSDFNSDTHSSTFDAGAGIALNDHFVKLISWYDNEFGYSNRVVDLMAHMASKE
Chain of DNA dC->dU-editing enzyme APOBEC-3G (Q9HC16 whole entry): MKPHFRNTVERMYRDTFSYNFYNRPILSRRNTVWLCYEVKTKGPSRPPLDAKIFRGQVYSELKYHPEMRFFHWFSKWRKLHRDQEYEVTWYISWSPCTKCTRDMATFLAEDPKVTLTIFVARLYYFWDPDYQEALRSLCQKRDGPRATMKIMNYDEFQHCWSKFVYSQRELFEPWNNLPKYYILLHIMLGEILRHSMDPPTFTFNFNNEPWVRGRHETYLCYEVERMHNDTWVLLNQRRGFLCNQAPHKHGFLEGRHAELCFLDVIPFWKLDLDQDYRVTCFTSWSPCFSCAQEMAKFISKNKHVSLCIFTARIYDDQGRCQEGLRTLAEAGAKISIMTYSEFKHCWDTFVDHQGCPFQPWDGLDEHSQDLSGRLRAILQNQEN

Cn1ccnc1N1CCN(C(=O)c2ccc(Cl)cc2)CC1
AC50 [1]: 8.2 µM (active) | AC50 [2]: 0.587 µM (active) | AC50 [3]: 224 µM (active) | AC50 [4]: > 260 µM (inactive)

CCCCNC(=O)Nc1nc2ccccc2s1
IC50 [5]: > 67.5 µM (inactive) | IC50 [6]: > 67.5 µM (inactive)

C=C(C)C(=O)Nc1cccc(C2=NOC3(C2)C[C@@H](C(N)=O)N(C(=O)C(=C)C)C3)c1 (stereo partly drawn)
IC50 [7]: 1.89 µM (active) | IC50 [8]: > 66.6 µM (inactive) | EC50 [9]: 1.24 µM (active) | IC50 [10]: 3.08 µM (not active) | IC50 [11]: > 100 µM (inactive) | IC50 [12]: 4.95 µM (active) | IC50 [13]: 5.94 µM (active) | IC50 [14]: 2.56 µM (active)

CC(=O)Nc1ccc(Nc2cc(C)nc3c(-c4ccccc4)cnn23)cc1
AC50 [15]: 15.3 µM (active) | AC50 [16]: 5.54 µM (active)

O=C(Nc1ccc(Br)cn1)c1ccc([N+](=O)[O-])o1
CC50 [17]: 13.8 µM (active) | IC50 [18]: 35.9 µM (inactive) | EC50 [19]: 16.7 µM (active) | IC50 [20]: 35.9 µM (inactive) | IC50 [21]: > 25 µM (active) | IC50 [22]: 35.9 µM (inactive)

C/C(=N/NC(=O)C1CCCC1)c1ccc(NC(=O)C(F)(F)F)cc1
AC50 [23]: 12.3 µM (active) | EC50 [24]: 0.802 µM (active)

COc1ccc(C(=O)Nc2nc3c(OC)cccc3s2)cc1
IC50 [25]: 41.9 µM (active)

CCCCCCCCCCCCCCCCCCC#CCCCCCCCCCCC(=O)O
IC50 [26]: > 100 µM (inactive) | IC50 [27]: > 100 µM (not active) | IC50 [28]: 15.2 µM (active) | IC50 [29]: > 100 µM (inactive)

O=C(c1ccccc1)N1CCN(c2ccnc3cc(Cl)ccc23)CC1
AC50 [30]: 5.68 µM (active) | AC50 [1]: 1.69 µM (active) | AC50 [3]: 2.05 µM (active)

CC(C)=CCCC(C)CN(C)CCc1ccccn1 (stereo not drawn)
EC50 [31]: > 60 µM (not active) | EC50 [32]: 0.027 µM (active) | EC50 [33]: > 195 µM (not active) | EC50 [34]: < 0.1 µM (active) | EC50 [35]: 0.083 µM (active) | EC50 [36]: 0.027 µM (active)
